According to PubChem BioAssay AID248 (DTP/NCI, 2004):
Several values for one entry are separate records, joined by “and”; a condition that tells them apart may be missing. Identical values can stand only once. Toxic doses and inconclusive results are not listed. No stated cut-off is given here; in the data, active means T/C of 150% or more; inactive means T/C below 125%.

Tested on: L1210 leukemia ip in BDF1 mice, survival T/C
Experiment: NCI In Vivo Anticancer Drug Screen. Data for tumor model L1210 Leukemia (intraperitoneal) in B6D2F1 (BDF1) mice
Settings: endpoint: mean survival time, higher = longer survival
Summary of the method: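 Transplanted-tumor mice were given test agent; controls received vehicle only. Survival readings from the two groups were divided (treated over control).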

[1] = dose: 12.5 mg/kg/injection, schedule: Q01DX009 (ip), vehicle: Klucel (hydroxypropylcellulose) (HPC)
[2] = dose: 25.0 mg/kg/injection, schedule: Q01DX009 (ip), vehicle: Klucel (hydroxypropylcellulose) (HPC)
[3] = dose: 25.0 mg/kg/injection, schedule: Q04DX003 (ip), vehicle: Klucel (hydroxypropylcellulose) (HPC)
[4] = dose: 50.0 mg/kg/injection, schedule: Q01DX009 (ip), vehicle: Klucel (hydroxypropylcellulose) (HPC)
[5] = dose: 50.0 mg/kg/injection, schedule: Q04DX003 (ip), vehicle: Klucel (hydroxypropylcellulose) (HPC)
[6] = dose: 100.0 mg/kg/injection, schedule: Q04DX003 (ip), vehicle: Klucel (hydroxypropylcellulose) (HPC)
[7] = dose: 75.0 mg/kg/injection, schedule: Q01DX001 (ip), vehicle: carboxymethylcellulose (CMC)
[8] = dose: 100.0 mg/kg/injection, schedule: Q01DX001 (ip), vehicle: carboxymethylcellulose (CMC)
[9] = dose: 200.0 mg/kg/injection, schedule: Q04DX003 (ip), vehicle: Klucel (hydroxypropylcellulose) (HPC)
[10] = dose: 400.0 mg/kg/injection, schedule: Q04DX003 (ip), vehicle: Klucel (hydroxypropylcellulose) (HPC)
[11] = dose: 100.0 mg/kg/injection, schedule: Q01DX009 (ip), vehicle: Klucel (hydroxypropylcellulose) (HPC)
[12] = dose: 200.0 mg/kg/injection, schedule: Q01DX009 (ip), vehicle: Klucel (hydroxypropylcellulose) (HPC)
[13] = dose: 400.0 mg/kg/injection, schedule: Q01DX009 (ip), vehicle: Klucel (hydroxypropylcellulose) (HPC)
[14] = dose: 100.0 mg/kg/injection, schedule: Q01DX009 (ip), vehicle: saline
[15] = dose: 100.0 mg/kg/injection, schedule: Q04DX003 (ip), vehicle: saline with Tween-80
[16] = dose: 200.0 mg/kg/injection, schedule: Q04DX003 (ip), vehicle: saline with Tween-80
[17] = dose: 400.0 mg/kg/injection, schedule: Q04DX003 (ip), vehicle: saline with Tween-80
[18] = dose: 100.0 mg/kg/injection, schedule: Q01DX001 (ip), vehicle: saline
[19] = dose: 200.0 mg/kg/injection, schedule: Q01DX001 (ip), vehicle: saline
[20] = dose: 400.0 mg/kg/injection, schedule: Q04DX003 (ip), vehicle: saline

Measured: T/C

CCOC(=O)/C=C(\CBr)OC
inactive: [1] 105 % of control | [2] 98 % of control | [3] 90 % of control | [4] 94 % of control and 103 % of control | [5] 96 % of control | [6] 96 % of control

COc1cc(N=C(N)N=C(N)N)c2ncccc2c1
inactive: [7] 97 % of control

O=C1C(=O)c2ccccc2C(O)=C1c1ccc(Br)cc1
inactive: dose: 50.0 mg/kg/injection, schedule: Q01DX001 (ip), vehicle: carboxymethylcellulose (CMC) 120 % of control | [8] 103 % of control

Nc1ccc(NC(=O)c2ccc3ccccc3c2O)c(Cl)c1
inactive: [6] 94 % of control | [9] 97 % of control | [10] 94 % of control

O=C1c2cccc([N+](=O)[O-])c2C(=O)N1CCl
inactive: dose: 100.0 mg/kg/injection, schedule: Q01DX001 (ip), vehicle: steriod suspending solution 97 % of control | dose: 200.0 mg/kg/injection, schedule: Q01DX001 (ip), vehicle: steriod suspending solution 105 % of control

C(=Nc1ccc2c(c1)Cc1ccccc1-2)c1ccnc2ccccc12
inactive: [11] 97 % of control | [6] 92 % of control | [12] 100 % of control | [9] 90 % of control | [13] 97 % of control | [10] 94 % of control

N#CC(CCCc1cccc(N2CN=C(N)N=C2N)c1)c1ccccc1 (configuration not stated)
inactive: dose: 50.0 mg/kg/injection, schedule: Q01DX001 (ip), vehicle: saline 96 % of control

O=C1OCCS1
inactive: dose: 25.0 mg/kg/injection, schedule: Q01DX009 (ip), vehicle: saline 107 % of control | dose: 50.0 mg/kg/injection, schedule: Q01DX009 (ip), vehicle: saline 104 % of control | [14] 101 % of control and 105 % of control

CC(=O)N[C@H](CO)[C@H](O)c1ccc([N+](=O)[O-])cc1
inactive: dose: 100.0 mg/kg/injection, schedule: Q04DX003 (ip), vehicle: saline sonified 98 % of control | dose: 200.0 mg/kg/injection, schedule: Q04DX003 (ip), vehicle: saline sonified 104 % of control | dose: 400.0 mg/kg/injection, schedule: Q04DX003 (ip), vehicle: saline sonified 103 % of control

CC1(C)OC2C(=O)C3COC(O3)C2O1 (configuration not stated)
inactive: [8] 106 % of control | dose: 200.0 mg/kg/injection, schedule: Q01DX001 (ip), vehicle: carboxymethylcellulose (CMC) 106 % of control | dose: 400.0 mg/kg/injection, schedule: Q01DX001 (ip), vehicle: carboxymethylcellulose (CMC) 103 % of control

COc1ccc(OC)c(C(=O)CC(O)(C(F)(F)F)C(F)(F)F)c1
inactive: [15] 94 % of control | [16] 90 % of control | [17] 99 % of control

CCCCCCCCCCOc1ccc(/C=N\N=C\c2ccc(OCCCCCCCCCC)cc2)cc1
inactive: dose: 100.0 mg/kg/injection, schedule: Q01DX009 (ip), vehicle: saline with Tween-80 88 % of control | dose: 200.0 mg/kg/injection, schedule: Q01DX009 (ip), vehicle: saline with Tween-80 97 % of control | dose: 400.0 mg/kg/injection, schedule: Q01DX009 (ip), vehicle: saline with Tween-80 95 % of control

NC(=O)N1C(c2ccccc2)C1c1ccccc1 (configuration not stated)
inactive: [1] 100 % of control | dose: 12.5 mg/kg/injection, schedule: Q04DX003 (ip), vehicle: Klucel (hydroxypropylcellulose) (HPC) 93 % of control | [2] 97 % of control | [3] 100 % of control | [4] 100 % of control | [5] 92 % of control

O=C(Oc1cccc(OC(=O)c2ccccc2)c1)c1ccccc1
inactive: [15] 100 % of control | [16] 91 % of control | [17] 88 % of control

CC(C)Cc1ccc(C(C)C(=O)O)cc1 (configuration not stated)
inactive: [18] 100 % of control | [19] 92 % of control

COc1c([N+](=O)[O-])cc(C)nc1Cl
inactive: [18] 95 % of control | [19] 101 % of control | dose: 400.0 mg/kg/injection, schedule: Q01DX001 (ip), vehicle: saline 101 % of control

Cc1ccc(NC(=S)NCCc2ccccn2)cc1C
inactive: [11] 96 % of control | [12] 99 % of control | [13] 91 % of control

CC(C)(C)OC(=O)C(=[N+]=[N-])C(=O)OC(C)(C)C
inactive: dose: 100.0 mg/kg/injection, schedule: Q01DX001 (ip), vehicle: Klucel (hydroxypropylcellulose) (HPC) 97 % of control | [11] 102 % of control | [6] 98 % of control | dose: 200.0 mg/kg/injection, schedule: Q01DX001 (ip), vehicle: Klucel (hydroxypropylcellulose) (HPC) 97 % of control | [12] 105 % of control | [9] 104 % of control | dose: 400.0 mg/kg/injection, schedule: Q01DX001 (ip), vehicle: Klucel (hydroxypropylcellulose) (HPC) 90 % of control | [13] 105 % of control | [10] 104 % of control

CCOC(=O)C=C1CCP(C)CC1 (configuration not stated)
inactive: [7] 103 % of control | dose: 150.0 mg/kg/injection, schedule: Q01DX001 (ip), vehicle: carboxymethylcellulose (CMC) 94 % of control

Nc1[nH]c(=O)ncc1-c1cccc(Cl)c1
inactive: [1] 103 % of control | [2] 95 % of control | [4] 100 % of control and 103 % of control

CC(C)(S)CNCCSC(=O)c1ccccc1
inactive: [15] 102 % of control | [16] 100 % of control | [17] 92 % of control

COC1CC(NC(=O)N(C)N=O)C(O)C(C)O1 (configuration not stated)
inactive: [20] 106 % of control | dose: 500.0 mg/kg/injection, schedule: Q04DX003 (ip), vehicle: saline 101 % of control

Cc1ccc(C)c(NC(=O)Oc2ccc(Br)cc2Br)c1
inactive: [2] 92 % of control | [4] 94 % of control | [6] 94 % of control | [12] 93 % of control and 114 % of control | [9] 87 % of control | [10] 110 % of control

CC(=O)C(N)CCC(=O)O (configuration not stated)
inactive: [14] 106 % of control | dose: 100.0 mg/kg/injection, schedule: Q04DX003 (ip), vehicle: saline 97 % of control | dose: 200.0 mg/kg/injection, schedule: Q01DX009 (ip), vehicle: saline 101 % of control | dose: 200.0 mg/kg/injection, schedule: Q04DX003 (ip), vehicle: saline 97 % of control | dose: 400.0 mg/kg/injection, schedule: Q01DX009 (ip), vehicle: saline 95 % of control | [20] 94 % of control

Clc1ccc(-c2coc3cccc[n+]23)cc1
inactive: dose: 75.0 mg/kg/injection, schedule: Q01DX001 (ip), vehicle: other 100 % of control | dose: 150.0 mg/kg/injection, schedule: Q01DX001 (ip), vehicle: other 97 % of control | dose: 300.0 mg/kg/injection, schedule: Q01DX001 (ip), vehicle: other 97 % of control

CCOC(=O)CNc1ccc(Cl)c(C)c1
inactive: dose: 100.0 mg/kg/injection, schedule: Q04DX002 (ip), vehicle: Klucel (hydroxypropylcellulose) (HPC) 111 % of control | dose: 200.0 mg/kg/injection, schedule: Q04DX002 (ip), vehicle: Klucel (hydroxypropylcellulose) (HPC) 107 % of control | dose: 400.0 mg/kg/injection, schedule: Q04DX002 (ip), vehicle: Klucel (hydroxypropylcellulose) (HPC) 111 % of control

N#CSCCOCCSC#N
inactive: dose: 5.0 mg/kg/injection, schedule: Q01DX001 (ip), vehicle: saline 108 % of control | dose: 10.0 mg/kg/injection, schedule: Q01DX001 (ip), vehicle: saline 96 % of control
